Experimental data from patent US10494355B2, “Oxadiazole amine derivative compounds as histone deacetylase 6 inhibitor, and the pharmaceutical composition comprising the same” (Chong Kun Dang Pharmaceutical Corp., priority 2015, dated 2019).

Tests used:
human recombinant HDAC1 = molecular target: T1, human recombinant HDAC1 (Homo sapiens, UniProt Q13547); assay: HDAC1 enzyme activity inhibition assay (HDAC Fluorimetric Drug Discovery Kit); format: biochemical; settings: human recombinant HDAC1, 10 μM substrate, 30° C. 60 minutes
T1 construct: purchased Enzo Life Science BML-SE456
Method: (§1) In order to examine the HDAC6 selectivity of the compounds of formula I of the present invention by HDAC1 and HDAC6 enzymatic activity inhibition assays, an experiment was performed using a conventional substance as a control.
(§2) HDAC enzyme activity was measured using a HDAC Fluorimetric Drug Discovery Kit (BML-AK511, 516, Enzo Life Science). For the HDAC1 enzyme activity test, human recombinant HDAC1 (BML-SE456) was used as an enzyme source, and Fluor de Lys®-“SIRT1 (BNL-KI177) was used as a substrate. A 5-fold dilution of the compound was seeded into a 96-well plate, and then 0.3 μg of the enzyme and 10 μM of the substrate were added to each well of the plate and allowed to react at 30° C. for 60 minutes. Then, Fluor de Lys®-Developer II (BML-KI176) was added thereto and allowed to react for 30 minutes, after which the fluorescence value (Ex 360, Em 460) was measured using a multi-plate reader (Flexstation 3, Molecular Device). The HDAC6 enzyme was tested using human recombinant HDAC6 (382180) (Calbiochem) according to the same protocol as the HDAC1 enzyme activity test method. Based on the resulting values, each IC50 value was calculated using GraphPad Prism4.0 program.

human recombinant HDAC6 = molecular target: T2, human recombinant HDAC6 (Homo sapiens, UniProt Q9UBN7); assay: HDAC6 enzyme activity inhibition assay (HDAC Fluorimetric Drug Discovery Kit); format: biochemical; settings: 30° C. 60 minutes
T2 construct: purchased Calbiochem 382180
T2 sequence (Q9UBN7 1-1215): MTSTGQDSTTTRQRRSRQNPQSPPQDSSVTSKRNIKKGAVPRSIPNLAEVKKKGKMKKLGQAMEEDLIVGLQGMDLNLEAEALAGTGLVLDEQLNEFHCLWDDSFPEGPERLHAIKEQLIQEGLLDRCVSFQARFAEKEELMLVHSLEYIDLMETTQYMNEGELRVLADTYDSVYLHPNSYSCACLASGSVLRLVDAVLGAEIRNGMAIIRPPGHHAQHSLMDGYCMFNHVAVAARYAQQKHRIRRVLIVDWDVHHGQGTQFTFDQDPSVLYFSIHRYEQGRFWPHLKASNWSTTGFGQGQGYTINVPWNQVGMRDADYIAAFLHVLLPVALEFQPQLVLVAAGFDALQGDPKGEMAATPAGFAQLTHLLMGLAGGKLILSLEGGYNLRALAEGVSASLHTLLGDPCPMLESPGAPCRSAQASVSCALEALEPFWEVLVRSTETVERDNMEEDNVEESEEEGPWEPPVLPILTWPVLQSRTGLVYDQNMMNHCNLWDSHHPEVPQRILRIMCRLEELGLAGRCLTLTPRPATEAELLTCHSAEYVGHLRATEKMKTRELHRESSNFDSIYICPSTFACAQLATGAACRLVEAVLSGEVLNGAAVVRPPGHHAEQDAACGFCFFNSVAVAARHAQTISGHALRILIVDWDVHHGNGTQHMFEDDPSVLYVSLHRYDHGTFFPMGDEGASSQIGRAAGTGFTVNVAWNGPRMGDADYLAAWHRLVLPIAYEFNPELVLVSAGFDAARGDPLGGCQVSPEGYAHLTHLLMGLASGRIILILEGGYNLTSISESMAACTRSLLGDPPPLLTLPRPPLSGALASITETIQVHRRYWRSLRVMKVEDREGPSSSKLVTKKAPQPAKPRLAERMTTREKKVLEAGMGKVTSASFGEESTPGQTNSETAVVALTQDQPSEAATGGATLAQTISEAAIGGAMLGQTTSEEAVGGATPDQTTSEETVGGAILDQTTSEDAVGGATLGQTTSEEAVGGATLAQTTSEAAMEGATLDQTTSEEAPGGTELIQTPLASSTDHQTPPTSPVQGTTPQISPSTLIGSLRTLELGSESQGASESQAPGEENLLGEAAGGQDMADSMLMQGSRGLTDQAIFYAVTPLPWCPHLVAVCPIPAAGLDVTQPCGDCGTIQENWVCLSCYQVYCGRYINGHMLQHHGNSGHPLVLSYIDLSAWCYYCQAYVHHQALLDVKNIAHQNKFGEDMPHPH
Method: as §1, §2

T1 sequence (Q13547 whole entry): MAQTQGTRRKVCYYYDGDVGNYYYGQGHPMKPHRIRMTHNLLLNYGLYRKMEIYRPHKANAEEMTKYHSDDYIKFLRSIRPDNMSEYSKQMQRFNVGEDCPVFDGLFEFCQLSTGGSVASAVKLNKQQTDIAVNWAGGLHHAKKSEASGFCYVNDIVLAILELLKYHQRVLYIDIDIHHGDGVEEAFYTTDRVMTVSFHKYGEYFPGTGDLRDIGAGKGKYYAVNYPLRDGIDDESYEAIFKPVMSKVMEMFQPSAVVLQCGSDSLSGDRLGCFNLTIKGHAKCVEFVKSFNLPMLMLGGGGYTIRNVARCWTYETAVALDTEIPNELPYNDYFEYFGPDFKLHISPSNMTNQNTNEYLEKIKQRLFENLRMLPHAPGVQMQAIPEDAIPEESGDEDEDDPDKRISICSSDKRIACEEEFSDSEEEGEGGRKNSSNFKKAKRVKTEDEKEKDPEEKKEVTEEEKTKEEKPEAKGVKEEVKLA

Row | Structure (SMILES) | IC50 (human recombinant HDAC1) | IC50 (human recombinant HDAC6)
1 | Fc1ccc(C2(Nc3ncc(-c4nnc(C(F)(F)F)o4)cn3)CCC2)c(Cl)c1 [Compound 1960, N-(1-(2-chloro-4-fluorophenyl)cyclobutyl)-5-(5-(trifluoromethyl)-1,3,4-oxadiazol-2-yl)pyrimidin-2-amine] | > 10 µM | 1.23 µM
2 | COc1cccc(C2(Nc3ncc(-c4nnc(C(F)F)o4)cn3)CC2)c1 [Compound 2048, 5-(5-(difluoromethyl)-1,3,4-oxadiazol-2-yl)-N-(1-(3-methoxyphenyl)cyclopropyl)pyrimidin-2-amine] | > 10 µM | 0.063 µM
3 | FC(F)c1nnc(-c2cnc(NC3(c4cccs4)CC3)nc2)o1 [Compound 2040, 5-(5-(difluoromethyl)-1,3,4-oxadiazol-2-yl)-N-(1-(thiophen-2-yl)cyclopropyl)pyrimidin-2-amine] | > 10 µM | 0.1 µM
4 | COc1cccc(C2(Nc3ncc(-c4nnc(C(F)F)o4)cn3)CCC2)c1 [Compound 1605, 5-(5-(difluoromethyl)-1,3,4-oxadiazol-2-yl)-N-(1-(3-methoxyphenyl)cyclobutyl)pyrimidin-2-amine] | > 10 µM | 0.044 µM
5 | Fc1ccc(C2(Nc3ncc(-c4nnc(C(F)(F)F)o4)cn3)CCC2)cc1Cl [Compound 1818, N-(1-(3-chloro-4-fluorophenyl)cyclobutyl)-5-(5-(trifluoromethyl)-1,3,4-oxadiazol-2-yl)pyrimidin-2-amine] | > 10 µM | 0.751 µM
6 | FC(F)(F)c1nnc(-c2cnc(NC3(c4ccccc4)CCCCC3)nc2)o1 [Compound 1582, N-(1-phenylcyclohexyl)-5-(5-(trifluoromethyl)-1,3,4-oxadiazol-2-yl)pyrimidin-2-amine] | > 10 µM | 1.25 µM
7 | FC(F)c1nnc(-c2cnc(NC3(c4cccc(C(F)(F)F)c4)CC3)nc2)o1 [Compound 1740, 5-(5-(difluoromethyl)-1,3,4-oxadiazol-2-yl)-N-(1-(3-(trifluoromethyl)phenyl)cyclopropyl)pyrimidin-2-amine] | > 10 µM | 0.062 µM
8 | Fc1ccc(C2(Nc3ncc(-c4nnc(C(F)F)o4)cn3)CCC2)cc1N1CCOCC1 [Compound 2046, 5-(5-(difluoromethyl)-1,3,4-oxadiazol-2-yl)-N-(1-(4-fluoro-3-morpholinophenyl)cyclobutyl)pyrimidin-2-amine] | > 10 µM | 0.329 µM
9 | Fc1c(Cl)cccc1C1(Nc2ncc(-c3nnc(C(F)F)o3)cn2)CCC1 [Compound 1965, N-(1-(3-chloro-2-fluorophenyl)cyclobutyl)-5-(5-(difluoromethyl)-1,3,4-oxadiazol-2-yl)pyrimidin-2-amine] | > 10 µM | 0.07 µM
10 | Fc1ccc(Cl)c(C2(Nc3ncc(-c4nnc(C(F)(F)F)o4)cn3)CCC2)c1 [Compound 1962, N-(1-(2-chloro-5-fluorophenyl)cyclobutyl)-5-(5-(trifluoromethyl)-1,3,4-oxadiazol-2-yl)pyrimidin-2-amine] | > 10 µM | 0.888 µM
11 | FC(F)(F)c1nnc(-c2cnc(NC3(c4ccccc4)CC3)nc2)o1 [Compound 1526, N-(1-phenylcyclopropyl)-5-(5-(trifluoromethyl)-1,3,4-oxadiazol-2-yl)pyrimidin-2-amine] | > 10 µM | 0.179 µM
12 | Fc1ccc(Cl)cc1C1(Nc2ncc(-c3nnc(C(F)(F)F)o3)cn2)CCC1 [Compound 1964, N-(1-(5-chloro-2-fluorophenyl)cyclobutyl)-5-(5-(trifluoromethyl)-1,3,4-oxadiazol-2-yl)pyrimidin-2-amine] | > 10 µM | 1.85 µM
13 | FC(F)c1nnc(-c2cnc(NC3(c4ccccc4)CCCC3)nc2)o1 [Compound 1579, 5-(5-(difluoromethyl)-1,3,4-oxadiazol-2-yl)-N-(1-phenylcyclopentyl)pyrimidin-2-amine] | > 10 µM | 0.046 µM
14 | FC(F)c1nnc(-c2cnc(NC3(c4cccnc4)CCC3)nc2)o1 [Compound 1913, 5-(5-(difluoromethyl)-1,3,4-oxadiazol-2-yl)-N-(1-(pyridin-3-yl)cyclobutyl)pyrimidin-2-amine] | > 10 µM | 0.04 µM
15 | FC(F)c1nnc(-c2cnc(NC3(c4ccc(N5CCOCC5)cc4)CCC3)nc2)o1 [Compound 2062, 5-(5-(difluoromethyl)-1,3,4-oxadiazol-2-yl)-N-(1-(4-morpholinophenyl)cyclobutyl)pyrimidin-2-amine] | > 10 µM | 0.256 µM
16 | COc1ccc(C2(Nc3ncc(-c4nnc(C(F)(F)F)o4)cn3)CCC2)cc1 [Compound 1604, N-(1-(4-methoxyphenyl)cyclobutyl)-5-(5-(trifluoromethyl)-1,3,4-oxadiazol-2-yl)pyrimidin-2-amine] | > 10 µM | 0.204 µM

Next, values leading:

Row | IC50 (human recombinant HDAC1) | IC50 (human recombinant HDAC6) | Structure (SMILES)
17 | > 10 µM | 0.075 µM | FC(F)c1nnc(-c2cnc(NC3(c4ccc(Cl)cc4)CC3)nc2)o1 [Compound 2052, N-(1-(4-chlorophenyl)cyclopropyl)-5-(5-(difluoromethyl)-1,3,4-oxadiazol-2-yl)pyrimidin-2-amine]
18 | > 10 µM | 0.043 µM | Fc1ccc(C2(Nc3ncc(-c4nnc(C(F)F)o4)cn3)CC2)c(F)c1 [Compound 2061, 5-(5-(difluoromethyl)-1,3,4-oxadiazol-2-yl)-N-(1-(2,4-difluorophenyl)cyclopropyl)pyrimidin-2-amine]
19 | > 10 µM | 0.039 µM | Fc1cccc(F)c1C1(Nc2ncc(-c3nnc(C(F)F)o3)cn2)CCC1 [Compound 1828, 5-(5-(difluoromethyl)-1,3,4-oxadiazol-2-yl)-N-(1-(2,6-difluorophenyl)cyclobutyl)pyrimidin-2-amine]
20 | > 10 µM | 0.023 µM | Fc1ccccc1C1(Nc2ncc(-c3nnc(C(F)F)o3)cn2)CCC1 [Compound 1609, 5-(5-(difluoromethyl)-1,3,4-oxadiazol-2-yl)-N-(1-(2-fluorophenyl)cyclobutyl)pyrimidin-2-amine]
21 | > 10 µM | 0.025 µM | Oc1cccc(C2(Nc3ncc(-c4nnc(C(F)F)o4)cn3)CCC2)c1 [Compound 1761, 3-(1-((5-(5-(difluoromethyl)-1,3,4-oxadiazol-2-yl)pyrimidin-2-yl)amino)cyclobutyl)phenol]
22 | > 10 µM | 0.039 µM | Fc1ccc(C2(Nc3ncc(-c4nnc(C(F)F)o4)cn3)CC2)cc1F [Compound 2058, 5-(5-(difluoromethyl)-1,3,4-oxadiazol-2-yl)-N-(1-(3,4-difluorophenyl)cyclopropyl)pyrimidin-2-amine]
23 | > 10 µM | 0.061 µM | Fc1ccc(C2(Nc3ncc(-c4nnc(C(F)F)o4)cn3)CCC2)cc1F [Compound 2045, 5-(5-(difluoromethyl)-1,3,4-oxadiazol-2-yl)-N-(1-(3,4-difluorophenyl)cyclobutyl)pyrimidin-2-amine]
24 | > 10 µM | 0.033 µM | Fc1cccc(C2(Nc3ncc(-c4nnc(C(F)F)o4)cn3)CC2)c1 [Compound 1713, 5-(5-(difluoromethyl)-1,3,4-oxadiazol-2-yl)-N-(1-(3-fluorophenyl)cyclopropyl)pyrimidin-2-amine]
25 | > 10 µM | 0.044 µM | FC(F)c1nnc(-c2cnc(NC3(c4ccc(Cl)cc4)CCC3)nc2)o1 [Compound 1616, N-(1-(4-chlorophenyl)cyclobutyl)-5-(5-(difluoromethyl)-1,3,4-oxadiazol-2-yl)pyrimidin-2-amine]
